Data on 21 compounds can be found in US20090069430A1, “DIBENZENE DERIVATIVES AS CALCIUM CHANNEL BLOCKERS” (NEUROPHARMA, S.A., priority 2005, published 2009).

Molecules are shown by their SMILES.

This experiment concerns VDCC. Nature of the experiment: VDCC inhibition: calcium entry (Fluo-4 fluorescence) after depolarization with 60 mM KCl in SH-SY5Y neuroblastoma cells. It is filed as cell-based, human. The protocol: This assay is aimed to determine the VDCC blocker activity of compounds; it is performed using SH-SY5Y neuroblastoma cells. SH-SY5Y cells were plated at 5×10^4 cells per well into Black/Clear Bottom 96-well culture plate, 48 hours before treatment. Cells were loaded with Fluo-4, 5 μM and pluronic acid, 0.1%, for 30 min at 37° C., 5% CO2, following a incubation of 15 min at RT in Krebs-HEPES solution. Immediately cells are exposed to the samples for 10 min at different concentrations, depending on potency. After the treatment, calcium entry is measured as fluorescence in a Fluostar Optima plate reader (BMG) in response to depolarization with 60 mM KCl. The excitation wavelength was 485 nm, and that of emission 520 nm.

Where [1] appears, read: compound at 10^−5, 10 min exposure.
[2] abbreviates: compound at 10^−6, 10 min exposure.
Where [3] appears, read: compound at 10^−7, 10 min exposure.
The mark [4] stands for this setting: compound at 10^−8, 10 min exposure.

Regarding `COCOc1cc(OC)ccc1C(=O)NCCCOc1ccc(CCNC(=O)c2ccc(OC)cc2OCOC)cc1` [Compound 2], the “% of calcium entry inhibition” value under setting [1] is recorded as 93.3 ± 5%, the “% of calcium entry inhibition” value under setting [2] was 34.2 ± 1.5%, the “% of calcium entry inhibition” value under setting [3] was found to be 29.7 ± 14% and the “% of calcium entry inhibition” value under setting [4] came to 31.2 ± 9%.
For `CCOC(=O)COc1cc(OC)ccc1C(=O)NCCCOc1ccc(CCNC(=O)c2ccc(OC)cc2OCC(=O)OCC)cc1` [Compound 8], the “% of calcium entry inhibition” value under setting [1] worked out at 57 ± 7% and the “% of calcium entry inhibition” value under setting [2] was found to be 0%.
Regarding `COCCOc1cc(OC)ccc1C(=O)NCCCOc1ccc(CCNC(=O)c2ccc(OC)cc2OCCOC)cc1` [Compound 10], the “% of calcium entry inhibition” value by setting is: under setting [1], 79 ± 0.1%; under setting [2], 22 ± 19%; under setting [3], 0%.
On to `CCC(C)Oc1cc(OC)ccc1C(=O)NCCCOc1ccc(CCNC(=O)c2ccc(OC)cc2OC(C)CC)cc1` (stereo not shown) [Compound 19], for which the “% of calcium entry inhibition” value is given as 75 ± 12% under setting [1], 69 ± 1% under setting [2] and 0% under setting [3].
For the compound `COc1c(Br)cc(C(=O)NCCCCCNC(=O)c2cc(Br)c(OC)c(Br)c2O)c(O)c1Br` [Compound 7], the “% of calcium entry inhibition” value reads like this: under setting [1], 90.7 ± 3%; under setting [2], 3.1 ± 0%.
For the compound `CCCCOc1cc(OC)ccc1C(=O)NCCCCCCNC(=O)c1ccc(OC)cc1OCCCC` [Compound 22], the “% of calcium entry inhibition” value is recorded as 24 ± 12% under setting [1] and 0% under setting [2].
As to `COCOc1cc(OC)ccc1C(=O)NCCCCCNC(=O)c1ccc(OC)cc1OCOC` [Compound 1], the “% of calcium entry inhibition” value under setting [1] was 57.8 ± 16%.
In the case of `COc1cc(OC)c(C(=O)NCCCCCNC(=O)c2ccc(OC)c(C)c2OC)cc1OC` [Compound 13], the “% of calcium entry inhibition” value is, setting by setting: under setting [1], 27 ± 2%; under setting [2], 0%.
As to `COc1ccc(C(=O)NCCCOc2ccc(CCNC(=O)c3ccc(OC)cc3OCC=C(C)C)cc2)c(OCC=C(C)C)c1` [Compound 17], the “% of calcium entry inhibition” value amounted to 45 ± 12% under setting [1], 39 ± 8% under setting [2] and 0% under setting [3].
For `COc1cc(O)c(C(=O)NCCCCCNC(=O)c2cc(Br)c(OC)c(Br)c2O)cc1Br` [Compound 6], the “% of calcium entry inhibition” value runs as follows: under setting [1], 96.6 ± 4%; under setting [2], 48.7 ± 18%; under setting [3], 27.5 ± 5%; under setting [4], 11.8 ± 16%.
Consider `COc1cc(O)c(C(=O)NCCCCCNC(=O)c2cc(Br)c(OC)cc2O)cc1Br` [Compound 5], for which, under setting [2], the “% of calcium entry inhibition” value turned out to be 0%.
As for `COCOc1cc(OC)ccc1C(=O)NCCCOc1c(Br)cc(CCNC(=O)c2ccc(OC)cc2OCOC)cc1Br` [Compound 4], the “% of calcium entry inhibition” value under setting [3] is on record as 6 ± 0%.
Regarding `COc1ccc(C(=O)NCCCCCNC(=O)c2ccc(OC)c(C)c2OC)c(OC)c1C` [Compound 12], the “% of calcium entry inhibition” value reads like this: under setting [1], 78 ± 2.5%; under setting [2], 0%.
On to `COc1ccc(C(=O)NCCCOc2ccc(CCNC(=O)c3ccc(OC)cc3OC)cc2)c(OC)c1` [Compound 15], for which the “% of calcium entry inhibition” value under setting [1] came out at 91.5 ± 1.5%, the “% of calcium entry inhibition” value under setting [2] turned out to be 37 ± 5% and the “% of calcium entry inhibition” value under setting [3] is given as 0%.
For the compound `COc1ccc(C(=O)NCCCOc2ccc(CCNC(=O)c3ccc(OC)cc3OCC(C)C)cc2)c(OCC(C)C)c1` [Compound 16], the “% of calcium entry inhibition” value is 39 ± 4% under setting [1] and 0% under setting [2].
As to `CCCCCOc1cc(OC)ccc1C(=O)NCCCCCCNC(=O)c1ccc(OC)cc1OCCCCC` [Compound 21], the “% of calcium entry inhibition” value reads like this: under setting [1], 27 ± 7%; under setting [2], 0%.
Turning to `CCCCOc1cc(OC)ccc1C(=O)NCCCOc1ccc(CCNC(=O)c2ccc(OC)cc2OCCCC)cc1` [Compound 18], the “% of calcium entry inhibition” value reads like this: under setting [1], 37 ± 2%; under setting [2], 0%.
Regarding `COc1ccc(C(=O)NCCCCCCNC(=O)c2ccc(OC)cc2OC)c(OC)c1` [Compound 14], the “% of calcium entry inhibition” value is, setting by setting: under setting [1], 38 ± 6%; under setting [2], 0%.
Consider `CCC(C)Oc1cc(OC)ccc1C(=O)NCCCCCCNC(=O)c1ccc(OC)cc1OC(C)CC` (stereo not shown) [Compound 20], for which the “% of calcium entry inhibition” value runs as follows: under setting [1], 91 ± 3%; under setting [2], 59 ± 19%; under setting [3], 0%.
In the case of `COc1ccc(C(=O)NCCCOc2ccc(CCNC(=O)c3ccc(OC)cc3OCC(C)=O)cc2)c(OCC(C)=O)c1` [Compound 11], the “% of calcium entry inhibition” value reads like this: under setting [1], 36 ± 3%; under setting [2], 0%.
For `CCCOc1cc(OC)ccc1C(=O)NCCCOc1ccc(CCNC(=O)c2ccc(OC)cc2OCCC)cc1` [Compound 9], the “% of calcium entry inhibition” value under setting [1] is reported as 86 ± 0.5%, the “% of calcium entry inhibition” value under setting [2] is 61 ± 0% and the “% of calcium entry inhibition” value under setting [3] was found to be 0%.
